Results: patent US12604891B2, “Antifoulant marine structures compositions and methods thereof” (THE TEXAS A&M UNIVERSITY SYSTEM, priority 2020, dated 2026)

What was measured:
Assay type in all cases: cell-based
[1] = test system: Escherichia coli; assay: Agar diffusion test, cytotoxic potential (ASTM F895); settings: antimicrobial composition in wells punched into inoculated agar, 78° F., 24 hours; FIG. 1
Experimental: The instant example evaluated various antimicrobial compositions for cytotoxic potential. Briefly, ASTM […] is a test method useful for assessing the cytotoxic potential of new materials and formulations and as part of a quality control program for established medical devices and components. Qualitative results of the potency of various antimicrobial compositions were evaluated using this test method. […] The testing wells were then compared to one another based on the zone of inhibition of cell or spore growth created for each well. Petri dishes were place in an incubator at 78° F. for 24 hours. The zones of inhibition around each well were then compared and the best two antimicrobial compositions from this example were utilized in subsequent testing.

[2] = test system: Staphylococcus aureus; assay: Antimicrobial activity under dynamic contact conditions (ASTM E2149-13a), dynamic shaker test, compositions comprising a polymer; settings: FIG. 3
Experimental: The instant example evaluated various antifoulant compositions for antimicrobial activity under dynamic contact conditions. Briefly, ASTM E2149-13a is a test standard for determining antimicrobial activity of antimicrobial compositions under dynamic contact conditions. The 2×2 inch antifoulant composition samples from Example 1 and Example 2 were placed in sterilized 500 mL flasks with 100 mL of distilled water.
For antifoulant compositions comprising a polymer, Staphylococcus aureus (gram-positive bacteria) were added to each flask at 3×10^6 VC/mL. For antifoulant compositions comprising a composite material, Escherichia coli (gram-negative bacteria) were added to each flask at approximately 1×10^6 cells/mL. Three samples (0.1 mL each) were taken immediately from each flask and spread on TSA plates. The flasks were incubated in a 37° C. shaking incubator at 200 rpm. Three samples (0.1 mL each) were removed and plated at 1 hour intervals for three hours. Plates were left for growth at 25° C. for 60 hours. Colonies were counted using Sphere Flash and the average VC/mL or colony forming units (CFU) were documented.

[3] = test system: gram-positive and gram-negative bacteria; assay: Laboratory testing, overall comparison of antimicrobials; settings: summary
Description: E. coli is a gram-negative bacteria that has a more complicated cell wall structure which makes this bacteria more difficult to penetrate and mitigate. In contrast, S. aureus is a gram positive bacteria and is naturally more susceptible to antimicrobials and, thus, may be easier to control.

Molecule	inhibition of bacterial growth per visible zone of inhibition around the sample [1]	antibacterial efficacy ([2]; S. aureus, dynamic fluid conditions, antifoulant composition comprising a polymer (HDPE)) [%]	relative antimicrobial efficacy among tested antimicrobials ([2]; antimicrobials in antifoulant compositions comprising a polymer (HDPE), dynamic flow conditions)	efficacies and performance with both gram-positive and gram-negative bacteria [3]
[O]=[Zn] [zinc oxide]	demonstrated efficacy in inhibiting bacterial growth	–	–	–
zinc pyrithione	demonstrated efficacy in inhibiting bacterial growth	99.9	most efficacious	highest efficacies and performance
